Measured values: patent publication US8501936B2 (priority 2009, dated 2013)

molecular target: human JAK2 (Homo sapiens (Human), UniProt O60674); conditions: read-out: JAK2 IC50
Sequence (O60674 815-1132): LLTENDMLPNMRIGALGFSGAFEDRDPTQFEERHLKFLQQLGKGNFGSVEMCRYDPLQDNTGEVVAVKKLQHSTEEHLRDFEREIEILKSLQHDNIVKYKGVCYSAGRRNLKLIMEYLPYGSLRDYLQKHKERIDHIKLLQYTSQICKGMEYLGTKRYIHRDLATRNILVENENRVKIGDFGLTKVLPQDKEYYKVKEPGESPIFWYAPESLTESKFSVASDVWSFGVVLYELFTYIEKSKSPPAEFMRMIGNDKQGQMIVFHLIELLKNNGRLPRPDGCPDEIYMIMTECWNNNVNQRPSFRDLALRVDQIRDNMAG

Question: Cc1nn(C)c(C)c1Nc1nc2c(-c3ccc(S(C)(=O)=O)cc3)cccn2n1 [Example 210, [8-(4-Methanesulfonyl-phenyl)-[1,2,4]triazolo[1,5-a]pyridin-2-yl]-(1,3,5-trimethyl-1H-pyrazol-4-yl)-amine] was tested. Which IC50 did it give?
Answer: 3000 nM

Question: For c1ccc(Nc2nc3ccccn3n2)cc1 [Example 1, Phenyl-[1,2,4]triazolo[1,5-a]pyridin-2-yl-amine], which IC50 is on record?
Answer: 1090 nM

Question: How did the IC50 turn out when CN1CCN(c2cccc(Nc3nc4c(Nc5ccccc5S(C)(=O)=O)cccn4n3)c2)CC1 [Example 68, N(8)-(2-Methanesulfonyl-phenyl)-N(2)-[3-(4-methyl-piperazin-1-yl)-phenyl]-[1,2,4]triazolo[1,5-a]pyridine-2,8-diamine] was run?
Answer: 29 nM

Question: How did the IC50 turn out when CS(=O)(=O)c1ccc(-c2cccn3nc(Nc4ccc(N5CCCCC5)cc4)nc23)cc1 [Example 18, [8-(4-Methanesulfonyl-phenyl)-[1,2,4]triazolo[1,5-a]pyridin-2-yl]-(4-piperidin-1-yl-phenyl)-amine] was run?
Answer: 0.6 nM

molecular target: human FAK (Homo sapiens (Human), UniProt Q05397); conditions: read-out: FAK IC50
Sequence (Q05397 whole entry): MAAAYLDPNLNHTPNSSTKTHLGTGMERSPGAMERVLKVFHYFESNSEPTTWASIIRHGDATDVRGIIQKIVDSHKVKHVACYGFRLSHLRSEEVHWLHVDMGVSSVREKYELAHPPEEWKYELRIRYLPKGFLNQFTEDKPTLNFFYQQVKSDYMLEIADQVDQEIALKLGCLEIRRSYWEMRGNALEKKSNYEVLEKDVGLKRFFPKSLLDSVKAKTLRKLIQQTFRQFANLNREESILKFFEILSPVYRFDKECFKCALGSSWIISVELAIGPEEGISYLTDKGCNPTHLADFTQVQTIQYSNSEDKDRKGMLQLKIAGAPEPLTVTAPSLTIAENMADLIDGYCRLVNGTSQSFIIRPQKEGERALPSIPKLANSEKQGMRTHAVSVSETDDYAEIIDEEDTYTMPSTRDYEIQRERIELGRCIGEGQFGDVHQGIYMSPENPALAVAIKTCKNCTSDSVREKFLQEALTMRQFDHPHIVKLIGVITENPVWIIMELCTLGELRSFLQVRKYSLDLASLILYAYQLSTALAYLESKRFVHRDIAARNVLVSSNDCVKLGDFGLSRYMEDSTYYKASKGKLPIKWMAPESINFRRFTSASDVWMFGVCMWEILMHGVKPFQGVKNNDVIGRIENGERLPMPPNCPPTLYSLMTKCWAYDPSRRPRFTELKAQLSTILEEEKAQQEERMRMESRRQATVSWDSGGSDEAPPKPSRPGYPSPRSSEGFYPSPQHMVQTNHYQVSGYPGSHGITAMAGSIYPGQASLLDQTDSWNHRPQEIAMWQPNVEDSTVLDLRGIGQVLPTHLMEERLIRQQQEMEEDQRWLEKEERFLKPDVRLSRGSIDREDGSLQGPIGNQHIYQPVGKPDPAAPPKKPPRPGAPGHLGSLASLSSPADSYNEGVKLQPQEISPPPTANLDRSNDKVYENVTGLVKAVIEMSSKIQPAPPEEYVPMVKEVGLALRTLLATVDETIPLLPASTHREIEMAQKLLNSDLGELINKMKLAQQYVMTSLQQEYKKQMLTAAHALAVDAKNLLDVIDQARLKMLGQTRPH

Question: CN(C)C(=O)CN1CCC(c2ccc(Nc3nc4c(-c5cnn(-c6ccc(F)cc6)c5)cccn4n3)cc2)CC1 [Example 283, 2-[4-(4-{8-{1-(4-Fluoro-phenyl)1H-pyrazol-4-yl}-[1,2,4]triazolo[1,5-a]pyridine-2-ylamino}-phenyl)-piperidin-1-yl]-N,N-dimethyl-acetamide] was tested. Which IC50 did it give?
Answer: 1370 nM

Question: FC1(F)Oc2cccc(-c3cccn4nc(Nc5ccc6c(c5)CCNCC6)nc34)c2O1 [Example 244, [8-(2,2-difluoro-1,3-benzodioxol-4-yl)-[1,2,4]triazolo[1,5-a]pyridin-2-yl]-(2,3,4,5-tetrahydro-1H-3-benzazepin-7-yl)amine] was tested. Which IC50 did it give?
Answer: 6500 nM

Question: CN1CCN(c2cccc(Nc3nc4c(OCc5ccccc5C#N)cccn4n3)c2)CC1 [Example 263, 2-{2-[3-(4-Methyl-piperazin-1-yl)-phenylamino]-[1,2,4]triazolo[1,5-a]pyridin-8-yloxymethyl}-benzonitrile] was tested. Which IC50 did it give?
Answer: 3000 nM

Question: COc1ccc(C(F)(F)F)cc1-c1cccn2nc(Nc3cccc(C4CCN(CC(=O)N(C)C)CC4)c3)nc12 [Example 410] was tested. Which IC50 did it give?
Answer: 658 nM

Question: Fc1ccc(C(F)(F)F)cc1-c1cccn2nc(Nc3ccc4c(c3)CCNCC4)nc12 [Example 270, [8-(2-Fluoro-5-trifluoromethyl-phenyl)-[1,2,4]triazolo[1,5-a]pyridin-2-yl]-[2,3,4,5-tetrahydro-1H-benzo[d]azopin-7-yl]-amine] was tested. Which IC50 did it give?
Answer: 6500 nM

Question: Which IC50 does the source give for COc1ccc(Nc2nc3c(-c4ccc(S(C)(=O)=O)cc4)cccn3n2)cc1 [Example 19, [8-(4-Methanesulfonyl-phenyl)-[1,2,4]triazolo[1,5-a]pyridin-2-yl]-(4-methoxy-phenyl)-amine] here?
Answer: 1580 nM

Question: Which IC50 does the source give for CS(=O)(=O)CCN1CCC(c2cccc(Nc3nc4c(-c5ccc(S(C)(=O)=O)cc5)cccn4n3)c2)CC1 [Example 190, {3-[1-(2-Methanesulfonyl-ethyl)-piperidin-4-yl]-phenyl}-[8-(4-methanesulfonyl-phenyl)-[1,2,4]triazolo[1,5-a]pyridin-2-yl]-amine] here?
Answer: 580 nM

Question: For CN1CCN(c2ccc(Nc3nc4c(Nc5cccc(S(C)(=O)=O)c5)cccn4n3)cc2)CC1 [Example 109, N(8)-(3-Methanesulfonyl-phenyl)-N(2)-[4-(4-methyl-piperazin-1-yl)-phenyl]-[1,2,4]triazolo[1,5-a]pyridine-2,8-diamine], which IC50 is on record?
Answer: 10000 nM

Question: CC(C)Oc1ccccc1-c1cccn2nc(Nc3ccc4c(c3)CCNCC4)nc12 [Example 299, [8-(2-Isopropoxy-phenyl]-[1,2,4]triazolo[1,5a]pyridine-2-yl]-(2,3,4,5-tetrahydro-benzo[d]azepin-7-yl)-amine] was tested. Which IC50 did it give?
Answer: 999 nM

Question: CN1CCC(c2ccc(Nc3nc4c(NCc5ccccc5CN(C)S(C)(=O)=O)cccn4n3)cc2)CC1 [Example 159, N-Methyl-N-[2-({2-[4-(1-methyl-piperidin-4-yl)-phenylamino]-[1,2,4]triazolo[1,5-a]pyridin-8-ylamino}-methyl)-benzyl]-methanesulfonamide] was tested. Which IC50 did it give?
Answer: 538 nM

Question: How did the IC50 turn out when CS(=O)(=O)c1ccc(-c2cccn3nc(Nc4cccc(C5CCNCC5)c4)nc23)cc1 [Example 182, [8-(4-Methanesulfonyl-phenyl)-[1,2,4]triazolo[1,5-a]pyridin-2-yl]-(3-piperidin-4-yl-phenyl)-amine] was run?
Answer: 1000 nM

Question: For COc1cc(C(F)(F)F)ccc1-c1cccc2nc(Nc3ccc4c(c3)CCN(CCS(C)(=O)=O)CC4)nn12 [Example 238], which IC50 is on record?
Answer: 1950 nM

Question: Which IC50 does the source give for COc1cccc(CNc2cccn3nc(Nc4ccncc4)nc23)c1 [Example 399, N(8)-(3-Methoxy-benzyl)-N(2)-pyridin-4-yl-[1,2,4]triazolo[1,5-a]pyridine-2,8-diamine] here?
Answer: 10000 nM

Question: How did the IC50 turn out when CN1CCN(c2ccc(Nc3nc4c(OCc5cccc(Cl)c5)cccn4n3)cc2)CC1 [Example 260, [8-(3-Chloro-benzyloxy)-[1,2,4]triazolo[1,5-a]pyridin-2-yl]-[4-(4-methyl-piperazin-1-yl)-phenyl]-amine] was run?
Answer: 1100 nM

Question: For CN1CCN(c2ccc(Nc3nc4c(-c5cccc(N(C)S(C)(=O)=O)c5)cccn4n3)cc2)CC1 [Example 127, N-Methyl-N-(3-{2-[4-(4-methyl-piperazin-1-yl)-phenylamino]-[1,2,4]triazolo[1,5-a]pyridin-8-yl}-phenyl)-methanesulfonamide], which IC50 is on record?
Answer: 3130 nM

Question: With CN1C(=O)Cc2cc(Nc3nc4c(NCc5cccnc5N(C)S(C)(=O)=O)cccn4n3)ccc21 [Example 146, N-Methyl-N-(3-{[2-(1-methyl-2-oxo-2,3-dihydro-1H-indol-5-ylamino)-[1,2,4]triazolo[1,5-a]pyridin-8-ylamino]-methyl}-pyridin-2-yl)-methanesulfonamide] as the compound, how does the IC50 read?
Answer: 106 nM

Question: With COc1ccccc1CNc1cccn2nc(Nc3ccncc3)nc12 [Example 401, N(8)-(2-Methoxy-benzyl)-N(2)-pyridin-4-yl-[1,2,4]triazolo[1,5-a]pyridine-2,8-diamine] as the compound, how does the IC50 read?
Answer: 6500 nM

Question: With CCn1cc(Nc2nc3c(-c4ccc(C(F)(F)F)cc4)cccn3n2)cn1 [Example 215, (1-Ethyl-1H-pyrazol-4-yl)-[8-(4-trifluoromethyl-phenyl)-[1,2,4]triazolo[1,5-a]pyridin-2-yl]-amine] as the compound, how does the IC50 read?
Answer: 10000 nM

Question: For O=c1[nH]cccc1-c1cccn2nc(Nc3ccc4ncccc4c3)nc12 [Example 276, 3-[2-(Quinolin-6-ylamino)-[1,2,4]triazolo[1,5-a]pyridin-8-yl]-1H-pyridin-2-one], which IC50 is on record?
Answer: 10000 nM

Question: With COc1cccc(-c2cccn3nc(Nc4ccc5c(c4)CNC5)nc23)c1 [Example 346, (2,3-Dihydro-1H-isoindol-5-yl)-[8-(3-methoxy-phenyl)-[1,2,4]-triazolo[1,5-a]pyridin-2-yl]-amine] as the compound, how does the IC50 read?
Answer: 999 nM

Question: Which IC50 does the source give for FC(F)COc1ccccc1-c1cccn2nc(Nc3ccc4c(c3)CCNCC4)nc12 [Example 367, {8-[2-(2,2-Difluoro-ethoxy)-phenyl]-[1,2,4]triazolo[1,5-a]pyridin-2-yl}-(2,3,4,5-tetrahydro-1H-3-benzazepin-7-yl)-amine] here?
Answer: 1910 nM

Question: For CN1CCN(c2ccc(Nc3nc4c(-c5ccc(S(=O)(=O)N(C)C)cc5)cccn4n3)cc2)CC1 [Example 54, N,N-Dimethyl-4-{2-[4-(4-methyl-piperazin-1-yl)-phenylamino]-[1,2,4]triazolo[1,5-a]pyridin-8-yl}-benzenesulfonamide], which IC50 is on record?
Answer: 787 nM

Question: How did the IC50 turn out when CCN1CCN(c2cccc(Nc3nc4c(-c5ccc(S(C)(=O)=O)cc5)cccn4n3)c2)C(=O)C1 [Example 205, 4-Ethyl-1-{3-[8-(4-methanesulfonyl-phenyl)-[1,2,4]triazolo[1,5-a]pyridin-2-ylamino]-phenyl}-piperazin-2-one] was run?
Answer: 10000 nM

Question: How did the IC50 turn out when CS(=O)(=O)c1ccccc1Nc1nc2c(Nc3ccccc3S(C)(=O)=O)cccn2n1 [Example 69, N(2),N(8)-Bis-(2-methanesulfonyl-phenyl)-[1,2,4]triazolo[1,5-a]pyridine-2,8-diamine] was run?
Answer: 6500 nM

Question: Which IC50 does the source give for CN1CCN(c2cncc(Nc3nc4cncc(-c5ccc(S(C)(=O)=O)cc5)n4n3)c2)CC1 [Example 108, [5-(4-Methanesulfonyl-phenyl)-[1,2,4]triazolo[1,5-a]pyrazin-2-yl]-[5-(4-methyl-piperazin-1-yl)-pyridin-3-yl]-amine] here?
Answer: 3370 nM

Question: With CS(=O)(=O)c1ccc(-c2cccn3nc(Nc4ccc(N5CCC(N6CCOCC6)CC5)cc4)nc23)cc1 [Example 49, [8-(4-Methanesulfonyl-phenyl)-[1,2,4]triazolo[1,5-a]pyridin-2-yl]-[4-(4-morpholin-4-yl-piperidin-1-yl)-phenyl]-amine] as the compound, how does the IC50 read?
Answer: 251 nM

Question: How did the IC50 turn out when CN1CCN(c2ccc(Nc3nc4c(NCC5CCCN5S(C)(=O)=O)cccn4n3)cc2)CC1 (centres unmarked) [Example 170, N(8)-(1-Methanesulfonyl-pyrrolidin-2-ylmethyl)-N(2)-[4-(4-methyl-piperazin-1-yl)-phenyl]-[1,2,4]triazolo[1,5-a]pyridine-2,8-diamine] was run?
Answer: 872 nM

Question: Which IC50 does the source give for CC(C)Oc1ccc(C(F)(F)F)cc1-c1cccn2nc(Nc3ccc4c(c3)CCN(CC(=O)N(C)C)CC4)nc12 [Example 326, 2-{7-[8-(2-Isopropoxy-5-trifluoromethyl-phenyl)-[1,2,4]triazolo[1,5-a]pyridin-2-ylamino]-1,2,4,5-tetrahydro-3-benzazepin-3-yl}-N,N-dimethyl-acetamide] here?
Answer: 5500 nM

Question: With CC(C)COc1ccc(C(F)(F)F)cc1-c1cccn2nc(Nc3ccc4c(c3)CCNCC4)nc12 [Example 379, [8-(2-Isobutoxy-5-trifluoromethyl-phenyl)-[1,2,4]triazolo[1,5-a]pyridin-2-yl]-(2,3,4,5-tetrahydro-1H-3-benzazepin-7-yl)-amine] as the compound, how does the IC50 read?
Answer: 3000 nM

Question: For CN1CCN(c2cccc(Nc3nc4c(NCc5ccccc5N(C)S(C)(=O)=O)cccn4n3)c2)CC1 [Example 148, N-Methyl-N-[2-({2-[3-(4-methyl-piperazin-1-yl)-phenylamino]-[1,2,4]triazolo[1,5-a]pyridin-8-ylamino}-methyl)-phenyl]-methanesulfonamide], which IC50 is on record?
Answer: 14.6 nM

Question: CS(=O)(=O)c1cccc(-c2cccc3nc(Nc4ccc(CN5CCOCC5)cc4)nn23)c1 [Example 87, [5-(3-Methanesulfonyl-phenyl)-[1,2,4]triazolo[1,5-a]pyridin-2-yl]-(4-morpholin-4-ylmethyl-phenyl)-amine] was tested. Which IC50 did it give?
Answer: 341 nM
